Source: patent publication EP0211490B1, “Antibiotics of the vancomycin-class” (SMITHKLINE BEECHAM CORPORATION, priority 1985, dated 1987)
Bridge positions count the residues as written; N and C are the ends. Square brackets hold non-standard residues; d marks the D form. Peptide text beside a SMILES is read from it. * marks the point of attachment. Ileψ(thiazoline)Cys = CC[C@H](C)[C@H](N)C1=N[C@H](C(=O)*)CS1; dOrn = NCCC[C@@H](N)C(=O)O

tested on: K. aridum; test: susceptibility of K. aridum to antibiotic disks (diffusion method); assay type: cell-based, Kibdelosporangium aridum; conditions: BBL susceptibility disks, content per antibiotic; one week at 28°C
Procedure: Susceptibility of K. aridum to antibiotics was examined by placing BBL susceptibility disks on nutrient agar plates seeded with K. aridum as an overlay. Diameters of the zones of inhibition were measured after incubation for one week at 28°C.
Susceptibility to Antibiotics. By the diffusion method, K. aridum was resistant to disks impregnated with gentamicin (10 µg), tobramycin (10 µg), streptomycin (10 µg), vancomycin (30 µg), penicillin (10 units), bacitracin (2 units), lincomycin (2 µg), clindamycin (2 µg), and cephalothin (30 µg). Chlortetracycline (5 µg) produced 18 mm zones of inhibition; tetracycline (5 µg) 11-12 mm zones; rifampin (5 µg) 11-15 mm zones; novobiocin (5 µg) 27-28 mm zones. All zones of inhibition contained at least a few resistant colonies.

Row | Compound | susceptibility by the diffusion method (in words)
1 | CC[C@H](C)[C@H](N)C1=N[C@H](C(=O)N[C@@H](CC(C)C)C(=O)N[C@H](CCC(=O)O)C(=O)N[C@H](C(=O)N[C@H]2CCCCNC(=O)[C@H](CC(N)=O)NC(=O)[C@@H](CC(=O)O)NC(=O)[C@H](Cc3cnc[nH]3)NC(=O)[C@@H](Cc3ccccc3)NC(=O)[C@H]([C@@H](C)CC)NC(=O)[C@@H](CCCN)NC2=O)[C@@H](C)CC)CS1 [bacitracin] ({Ileψ(thiazoline)Cys}-L[dE]IK[dOrn]I[dF]H[dD]N; lactam 4-C) | resistant
2 | CC(=O)OCC1=C(C(=O)O)N2C(=O)[C@@H](NC(=O)Cc3cccs3)[C@H]2SC1 [cephalothin] | resistant
3 | CCC[C@@H]1C[C@@H](C(=O)N[C@@H]([C@H]2O[C@H](SC)[C@H](O)[C@@H](O)[C@H]2O)[C@@H](C)O)N(C)C1 [lincomycin] | resistant
4 | [H]/N=C(/N)N[C@H]1[C@H](O)[C@@H](O)[C@H](O[C@@H]2O[C@@H](C)[C@](O)(C=O)[C@H]2O[C@@H]2O[C@@H](CO)[C@H](O)[C@@H](O)[C@@H]2NC)[C@@H](N/C(N)=N\[H])[C@@H]1O [streptomycin] | resistant
5 | NC[C@H]1O[C@H](O[C@H]2[C@H](O)[C@@H](O[C@H]3O[C@H](CO)[C@@H](O)[C@H](N)[C@H]3O)[C@H](N)C[C@@H]2N)[C@H](N)C[C@@H]1O [tobramycin] | resistant
6 | CN[C@H](CC(C)C)C(=O)N[C@H]1C(=O)N[C@@H](CC(N)=O)C(=O)N[C@H]2C(=O)N[C@H]3C(=O)N[C@H](C(=O)N[C@H](C(=O)O)c4cc(O)cc(O)c4-c4cc3ccc4O)[C@H](O)c3ccc(c(Cl)c3)Oc3cc2cc(c3O[C@@H]2O[C@H](CO)[C@@H](O)[C@H](O)[C@H]2O[C@H]2C[C@](C)(N)[C@H](O)[C@H](C)O2)Oc2ccc(cc2Cl)[C@H]1O [vancomycin] | resistant
7 | gentamicin | resistant
8 | penicillin | resistant

same assay, conditions: disk 5 µg; nutrient agar seeded with K. aridum, one week at 28°C; zones contained a few resistant colonies

Row | Compound | zones of inhibition
9 | CN(C)[C@@H]1C(O)=C(C(N)=O)C(=O)[C@@]2(O)C(O)=C3C(=O)c4c(O)ccc(Cl)c4[C@@](C)(O)[C@H]3C[C@@H]12 [Chlortetracycline] | 18 mm
10 | CO[C@@H]1[C@@H](OC(N)=O)[C@@H](O)[C@H](Oc2ccc3c(O)c(NC(=O)c4ccc(O)c(CC=C(C)C)c4)c(=O)oc3c2C)OC1(C)C [novobiocin] | 27-28 mm
11 | CO[C@H]1/C=C/O[C@@]2(C)Oc3c(C)c(O)c4c(O)c(c(/C=N/N5CCN(C)CC5)c(O)c4c3C2=O)NC(=O)/C(C)=C\C=C\[C@H](C)[C@H](O)[C@@H](C)[C@@H](O)[C@@H](C)[C@H](OC(C)=O)[C@@H]1C [rifampin] | 11-15 mm
12 | CN(C)[C@@H]1C(O)=C(C(N)=O)C(=O)[C@@]2(O)C(O)=C3C(=O)c4c(O)cccc4[C@@](C)(O)[C@H]3C[C@@H]12 [tetracycline] | 11-12 mm

tested on: Staph. aureus HH 127; test: in vivo activity against intraperitoneal infection in mice (ED50); conditions: Staphylococcus aureus, HH127, read-out: ED₅₀
Procedure: The ED₅₀'s were as follows: AAD 216 aglycone, 7.6 mg/kg; AAD 216 pseudo- aglycone, 7.6 mg/kg; AAD 216A pseudoaglycone, 5.0 mg./kg; vancomycin, 1.56 mg/kg. Similarly, the ED₅₀'s of AAD 216A pseudoaglycone, AAD 216B pseudoaglycone, AAD 216C pseudoaglycone and vancomycin, determined by utilizing a similar protocol, were 12.5 mg/kg, 7.6 mg/kg, 10.8 mg/kg and 1.92 mg/kg, respectively.

Row | Compound | ED50
13 | CNC1C(=O)NC2C(=O)NC(C(=O)NC3C(=O)NC4C(=O)NC(C(=O)NC(C(=O)O)c5cc(O)cc(O)c5-c5cc4ccc5O)C(O)c4cc(Cl)c(c(Cl)c4)Oc4cc3cc(c4O)Oc3ccc(cc3Cl)C2O)c2cc(cc(O)c2Cl)Oc2cc1ccc2O (stereo not shown) [AAD 216 aglycone] | 7.6 mg/kg
